Assay results reported in PMC9508196 (Scientific Reports, 2022).
Converted amounts (≈) assume the structure as drawn. No end group written: not given here.

Assays:
[1] = tested on: Salmonella Typhimurium ATCC 13,311; type: cell-based; settings: S. Typhimurium ATCC 13,311; broth microdilution, MHB, 24 h, 37 °C, triplicate
Description: (§1) Ten strains of both Gram-positive and -negative bacteria, including Staphylococcus aureus ATCC 25,923, S. epidermidis ATCC 12,228, Bacillus cereus ATCC 11,778, Listeria monocytogenes 10403S, Salmonella typhimurium ATCC 13,311, Pseudomonas aeruginosa ATCC 27,853, Shigella sonnei ATCC 11,060, A. baumannii ATCC 19,606, Escherichia coli ATCC 25,922 and E. coli O157:H7, were used in this study. Eight clinical isolates of multidrug-resistant (MDR) and extensively drug-resistant (XDR) A. baumannii, isolated from human (blood, sputum, respiratory sample, sterile site sample and urine), were kindly provided by Asst. Prof. Dr. Sakawrat Kanthawong (Faculty of Medicine, Khon Kaen University, Thailand) (Table S1). All bacterial strains, excluding L. monocytogenes 10403S and E. coli, were cultured in tryptic soy broth (TSB). L. monocytogenes was grown in TSB supplemented with 0.6% yeast extract (TSB-YE), and E. coli was cultured in Luria broth (LB). All of bacteria were cultured at 37 °C with continuous shaking at 220 rpm.
(§2) Minimum inhibitory concentration (MIC) of peptides and antibiotics was assessed by a modified version of the broth microdilution method from the Clinical and Laboratory Standards Institute (CLSI) as previously described. In brief, mid-log phase growths of microbial strains were cultured in Müeller-Hinton broth (MHB) with an initial inoculum of 2–8 × 10^5 CFU/mL. Bacteria suspensions were incubated in sterile 96-well plates with test agents at desired concentrations. […] Minimum bactericidal concentration (MBC) determination was performed using a modified version of the colony count assay. In brief, fifty µl of all non-turbid wells from MIC experiments were spread on agar plates. The MBC value was defined as the lowest concentration of peptides with no colony growth on the plate. All assays were performed in triplicate.

[2] = tested on: Bacillus cereus ATCC 11,778; type: cell-based; settings: B. cereus ATCC 11,778; broth microdilution, MHB, 24 h, 37 °C, triplicate
Description: as §1, §2

[3] = tested on: Staphylococcus epidermidis ATCC 12,228; type: cell-based; settings: S. epidermidis ATCC 12,228; broth microdilution, MHB, 24 h, 37 °C, triplicate
Description: as §1, §2

[4] = tested on: Listeria monocytogenes 10403S; type: cell-based; settings: L. monocytogenes 10403S; broth microdilution, MHB, 24 h, 37 °C, triplicate
Description: as §1, §2

[5] = tested on: Escherichia coli ATCC 25,922; type: cell-based; settings: E. coli ATCC 25,922; broth microdilution, MHB, 24 h, 37 °C, triplicate
Description: as §1, §2

[6] = tested on: Shigella sonnei ATCC 11,060; type: cell-based; settings: S. sonnei ATCC 11,060; broth microdilution, MHB, 24 h, 37 °C, triplicate
Description: as §1, §2

[7] = tested on: Pseudomonas aeruginosa ATCC 27,853; type: cell-based; settings: P. aeruginosa ATCC 27,853; broth microdilution, MHB, 24 h, 37 °C, triplicate
Description: as §1, §2

[8] = tested on: Staphylococcus aureus ATCC 25,923; type: cell-based; settings: S. aureus ATCC 25,923; broth microdilution, MHB, 24 h, 37 °C, triplicate
Description: as §1, §2

[9] = tested on: Escherichia coli O157:H7 MT strain; type: cell-based; settings: E. coli O157:H7 MT strain; broth microdilution, MHB, 24 h, 37 °C, triplicate
Description: as §1, §2

A. baumannii ATCC 19,606 = assay: microbe, parasite or virus in culture; type: cell-based, Acinetobacter baumannii; settings: A. baumannii ATCC 19,606; broth microdilution (modified CLSI), MHB, 2–8 × 10^5 CFU/mL, 24 h, 37 °C, triplicate
Description: as §1, §2

[10] = tested on: human red blood cells (hRBCs); assay: Hemolysis assay; type: cell-based; settings: peptide concentration that caused 10% hemolysis; 2% (v/v) hRBCs in PBS pH 7.4, 0.98 to 250 μg/ml, 1 h, 37 °C, OD 405 nm, triplicate
Procedure: The hemolytic activity of peptides was determined as the amount of hemoglobin released from lysed human red blood cells (hRBCs) after treatment with peptide. Fresh hRBCs were collected from a healthy volunteer in polycarbonate tubes containing heparin. Then, the collected packed RBCs were washed at least three times (or until the supernatant was clear) with sterile phosphate-buffered saline pH 7.4 (PBS) and centrifuged at 2,000 × g for 5 min. The 2% (v/v) of washed hRBCs in PBS were incubated with serially diluted peptides (0.98 to 250 μg/ml) for 1 h at 37 °C. After centrifugation, the supernatants were monitored for optical density (OD) at 405 nm using a Multiskan FC Microplate Reader[21]. Values for 0% (negative control) and 100% (positive control) lysis were determined by incubating the hRBCs with PBS only (ODBlank) and 0.1% (v/v) Triton X-100 (ODTriton X-100), respectively. The experiments were performed in triplicate. The percent hemolysis was calculated according to the following equation: %Hemolysis=ODSample-ODBlank/ODTriton X-100-ODBlank×100

[11] = tested on: mouse fibroblast (L929) cells; assay: In vitro cytotoxicity assay (MTT); type: cell-based; settings: 24 h, peptide 62.5 µg/mL
Procedure: The colorimetric 3-(4,5 dimethylthiazol-2-yl)-2,5-diphenyltetrazolium bromide (MTT; Invitrogen) dye reduction assay was used to determine the cytotoxicity of peptides on mouse fibroblast (L929) cells (NCTC clone 929) according to a modified MTT assay. L929 cells were cultured in Dulbecco’s Modified Eagle Medium (DMEM; Gibco) containing 10% fetal bovine serum (FBS; Gibco) and 100 U/ml penicillin–streptomycin in a fully humidified atmosphere of 95% air and 5% CO2 at 37 °C. The cells (10^5 cells/well) were seeded on 96-well plates and incubated with serially diluted peptide (0.98 to 250 μg/ml) for 24 h. At the end of incubation period, MTT solution (100 µl, 0.4 mg/ml) was added to each well and incubated for 4 h. The supernatants were removed and replaced by 100 µl of DMSO to dissolve the purple formazan crystals. Absorbance was measured using a MultiskanTM FC microplate reader at a wavelength of 570 nm. Cells without peptides served as negative controls. Cell viability (percentage) was calculated using the following equation: %Cell viability=OD570of treated sample-ODBlank/OD570of control-ODBlank×100%

Row | Compound | MIC [1] | MIC [2] | MIC [3] | MIC [4] | MIC [5] | MIC [6] | MIC [7] | MIC [8] | MIC [9] | MIC (A. baumannii ATCC 19,606) | MHC, minimum hemolytic concentration [10] | cell viability [11]
1 | RLFRRVKKVAGKIAKRIWKILRR-NH2 [A3P7] | 7.81 µg/mL | 7.81 µg/mL | 7.81 µg/mL | 3.91 µg/mL | 7.81 µg/mL | 7.81 µg/mL | 7.81 µg/mL | 7.81 µg/mL | 15.63 µg/mL | 7.81 µg/mL | 1.95 µg/mL | 
2 | CC[C@H](C)[C@H](NC(=O)CN)C(=O)NCC(=O)N[C@@H](C)C(=O)N[C@H](C(=O)N[C@@H](CC(C)C)C(=O)N[C@@H](CCCCN)C(=O)N[C@H](C(=O)N[C@@H](CC(C)C)C(=O)N[C@H](C(=O)N[C@H](C(=O)NCC(=O)N[C@@H](CC(C)C)C(=O)N1CCC[C@H]1C(=O)N[C@@H](C)C(=O)N[C@@H](CC(C)C)C(=O)N[C@H](C(=O)N[C@@H](CO)C(=O)N[C@@H](Cc1c[nH]c2ccccc12)C(=O)N[C@H](C(=O)N[C@@H](CCCCN)C(=O)N[C@@H](CCCNC(=N)N)C(=O)N[C@@H](CCCCN)C(=O)N[C@@H](CCCNC(=N)N)C(=O)N[C@@H](CCC(N)=O)C(=O)N[C@@H](CCC(N)=O)C(N)=O)[C@@H](C)CC)[C@@H](C)CC)[C@@H](C)O)[C@@H](C)O)C(C)C)C(C)C [Melittin, reference compound] | 3.91 µg/mL (≈ 1.37 µM) | 7.81 µg/mL (≈ 2.74 µM) | 3.91 µg/mL (≈ 1.37 µM) | 3.91 µg/mL (≈ 1.37 µM) |  | 3.91 µg/mL (≈ 1.37 µM) | 7.81 µg/mL (≈ 2.74 µM) |  | 7.81 µg/mL (≈ 2.74 µM) | 3.91 µg/mL (≈ 1.37 µM) |  | less than 5%
